The source of these data is PubChem BioAssay (NCI).

Values joined by “and” are separate entries in the source; they are usually repeats but may differ in a detail not shown here. Identical values can stand only once.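 Briefly, cells in 96-well plates were exposed to five compound concentrations for 48 h, and endpoints were estimated by linear interpolation. The concentration for 50% growth inhibition is given as GI50. TGI marks complete inhibition of growth.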

Common to all, as to experiment: DTP human tumour cell line panel, 48 h
Test [1] concerns A498 renal.
Test [2] deals with CCRF-CEM leukemia.
Test [3] has as its system HT29 colon.
The subject of test [4] is KM12 colon.
For test [5], the system named is NCI-H23 lung.
Test [6] deals with NCI-H460 lung.
Test [7] relates to OVCAR-3 ovarian.
Test [8] relates to SW-620 colon.
For test [9], the system named is U251 CNS.
In test [10] the test system is UACC-257 melanoma.

For the molecule `NC(=O)NN=C(CS)CS`, the TGI in test [1] is 23.4 µM; in [2] it was greater than 100 µM; in test [3], greater than 100 µM; in [4], greater than 100 µM; in [5], 52.4 µM; in test [6] it was 59 µM. Besides, the TGI in [7] was 51.3 µM; in test [8] it was 60 µM; in test [9], 43.6 µM; in test [10], greater than 70.6 µM.
Regarding `CN(C)CCCNc1ccc2ncn3c4ccccc4c(=O)c1c23`, the TGI in test [2] amounted to 23.4 µM; in test [3] it was 19.6 µM; in [4] it was 20.3 µM; in test [5] it was 29 µM; in test [6], 14.5 µM; in test [7] it was 56.2 µM. Besides, the results for the TGI in [8], in test [9] and in test [10] were 26.5 µM, greater than 100 µM and 61.3 µM, respectively.
As for `O=c1ccc2cc(O)c(O)cc2o1`, the TGI in [1], in [2], in test [3], in test [4], in test [5] and in test [6] was greater than 100 µM throughout. In addition, the TGI in [7], in test [8], in [9] and in [10] was greater than 100 µM in each case.
For the molecule `Cc1ccc(S(=O)(=O)NCCSCCNS(=O)(=O)c2ccc(C)cc2)cc1`, the TGI in [1], in [2], in test [3], in test [4], in test [5] and in test [6] was greater than 100 µM throughout. The TGI in test [7], in test [8], in [9] and in [10] was greater than 100 µM throughout.
Consider `COc1ccc([C@@H]2ON(C)[C@H]3CN(C)C(=O)[C@@H]23)cc1`, for which the total growth inhibition concentration (TGI) in test [2], in [3], in test [5], in test [6], in [7] and in test [8] was greater than 100 µM throughout. Besides, the TGI in test [9] and in test [10] was greater than 100 µM in each case.
Regarding `C/C=C/[P+](c1ccccc1)(c1ccccc1)c1ccccc1`, the concentration for total growth inhibition (TGI) is 41.3 µM in test [1]; greater than 42.4 µM in test [2]; 12.9 µM in test [3]; 7.7 µM in test [4]; 14.3 µM in [5]; 28.3 µM in test [6]. Further, the TGI in test [7] was determined as 7.94 µM; in [8] it was 24.3 µM; in test [9] it was 15.1 µM; in test [10] it was 11.2 µM.
For the molecule `O=C1c2c(c3c4ccccc4[nH]c3c3ccc4ccccc4c23)C(=O)N1CCN1CCCCC1`, the GI50 was 1.18 µM in test [1]; 0.272 µM in test [2]; 1.72 µM in test [3]; 3.05 µM in test [4]; 0.741 µM in [5]; 0.25 µM in test [6]. Moreover, the GI50 in test [7] was 1.99 µM; in test [8] it was 0.663 µM; in test [9], 1.05 µM; in [10], 1.87 µM. Moreover, the TGI in [1] worked out at 9.85 µM; in test [2], 11.3 µM; in test [3], 10.6 µM; in test [4] it was 25.5 µM; in test [5] it was 9.79 µM; in test [6], 1.45 µM. The TGI in test [7] was found to be 5.04 µM; in test [8] it was 4.75 µM; in test [9], 7.51 µM; in test [10] it was 4.23 µM.
In the case of `Cc1ccc(Oc2ccc(C)cc2[N+](=O)[O-])cc1`, the TGI in test [1], in [2], in [3], in test [4], in test [5] and in test [6] was greater than 100 µM each time. In addition, the TGI in test [7], in test [8], in test [9] and in [10] was greater than 100 µM in each case.
Turning to `COc1ccc(-c2c3c(nc4nc(SCCc5ccccc5)nc(N)c24)CCCC3)cc1OC`, the TGI in test [2], in test [3], in test [4], in [5], in test [6] and in test [7] was greater than 100 µM throughout. Further, the TGI in test [8], in test [9] and in test [10] was greater than 100 µM throughout.
For `CCCCCCCSc1nc2c(C(=O)OCC)ncn2c2ccccc12`, the TGI in test [2], in test [3], in [4], in [5], in test [6] and in test [7] was greater than 100 µM in each case. In addition, the TGI in test [8], in test [9] and in test [10] was greater than 100 µM each time.
With `COc1ccc(N2C(=O)C3c4[nH]c5c(C)cccc5c4C4CCC(C(C)(C)C)CC4C3C2=O)cc1` (centres undefined), the TGI is greater than 10 µM in test [1]; greater than 10 µM in test [2]; 5.86 µM in [3]; greater than 10 µM in [4]; greater than 10 µM in [5]; 6.63 µM in test [6]. Also, the TGI in test [7], in test [8] and in test [9] was greater than 10 µM in each case.
For `CC(=O)C(O)N1C(=O)C=CC1=O` (centres undefined), the TGI in test [1] was > 25 µM and 31.3 µM and 39 µM; in test [4], 25 µM and 31.2 µM and 34.7 µM; in [6], 25 µM and 34.8 µM and 33.1 µM. Besides, the GI50 in test [2] was > 25 µM and 2.74 µM; in [7], 11600 µM.
For the molecule `Cc1sc(Cc2ccccc2)nc1-c1ccc(N)cc1`, the TGI is greater than 100 µM in test [1]; 72.8 µM in [2]; 54.8 µM in test [3]; 46.3 µM in test [4]; greater than 100 µM in test [5]; 50.2 µM in test [6]. In addition, the TGI was 68.8 µM in [7], greater than 100 µM in test [8], 74.7 µM in test [9] and 84.5 µM in test [10].

A word on the TGI: it is the concentration giving total growth inhibition. As a reminder, the GI50 is the concentration at which growth is held to half of that of the control.
